Where a name gives a salt, the structure may show the parent alone. Read-outs that look alike come from different tables or passages of the source. Peptide text beside a SMILES is read from it.
Columns and labels:
[1] = test system: AST from Clostridium innocuum strain 554WT; assay: AST assay, sulfate acceptors (phenolic compounds, tyrosylpeptides) with p-nitrophenylsulfate as sulfate donor; type: biochemical; conditions: for Yield (%) of sulfated tyrosylpeptide: tyrosylpeptides as sulfate acceptors
[2] = test system: AST of Clostridium innocuum 554 ATCC 55803 (Strain 554WT); assay: AST assay, sulfate donor substrate specificity with tyramine as sulfate acceptor; type: biochemical; conditions: for Activity (%) as sulfate donor: relative to p-nitrophenylsulfate designated as 100% activity, tyramine as sulfate acceptor; for specific activity as donor substrate: normalized to p-acetylphenylsulfate as donor baseline at 100% activity
Method: (§1) At each stage of purification, the AST activity was assayed by incubating the AST with 0.1 M Tris (pH 8.0), 5.0 mM p-nitrophenylsulfate (as aryl sulfate donor) and 2.5 mM tyramine (as sulfate acceptor). The reaction was incubated at 37° C. and terminated by addition of 1 N NaOH. The amount of p-nitrophenol formed during the reaction was determined by an absorbance reading at 405 nm. One unit of enzyme is equal to 1 mmol of p-nitrophenol formed per minute per milligram protein. Other aryl sulfate donors and phenolic acceptors were used at similar concentrations. Peptide acceptors were typically used in the 250-500 mM range. Formation of sulfated phenols and peptides was also quantitated via HPLC, using a 30% acetonitrile/70% water mobile phase. A UV detector was used to monitor peptides at 280 nm. Other wavelengths were used with various sulfated phenolic products and substrates as appropriate.
The AST assay was performed as described in Example 2 using each of the sulfate donors listed in Table 4, with tyramine as the sulfate acceptor in each case. […] Activity is shown as a percentage relative to the activity obtained with p-nitrophenylsulfate, which is designated as 100% activity.

Clostridium innocuum AST = assay: Effectors of arylsulfotransferase activity; type: biochemical; conditions: no effect / inhibitory / stimulatory
Text: The above-described physical and biochemical properties of a Clostridium innocuum AST of the present invention are summarized in Table 3.

[3] = test system: bacterial arylsulfotransferase; conditions: prior bacterial arylsulfotransferase; Kobashi et al., 1987; cited from earlier work
[4] = test system: Eubacterium nodatum arylsulfotransferase; assay: Sulfation of CCK-8 by Eubacterium nodatum enzyme; type: biochemical; conditions: under conditions similar to the prior art
[5] = test system: Eubacterium A-44 arylsulfotransferase; conditions: p-acetylphenylsulfate as donor baseline at 100% activity; Kobashi et al., 1987; cited from earlier work
[6] = test system: AST of Clostridium innocuum 554 ATCC 55803 (Strain 554WT); assay: Apparent Km from double reciprocal plots; type: biochemical
Method: as §1
In this AST assay, various concentrations of p-nitrophenylsulfate (as a sulfate donor) and of tyramine (as a sulfate acceptor) were plotted against the corresponding enzyme reaction rate in a double reciprocal plots (FIG. 4). AST activity was determined as described previously.

[7] = p-nitrophenylsulfate as sulfate donor
[8] = phenolic compounds, p-nitrophenylsulfate as sulfate donor, tyramine 100

Compound: CSCC[C@H](NC(=O)[C@H](Cc1c[nH]c2ccccc12)NC(=O)CNC(=O)[C@@H](NC(=O)[C@H](Cc1ccc(O)cc1)NC(=O)[C@H](CC(=O)O)NC(=O)[C@H](CCC(N)=O)NC(=O)[C@@H]1CCC(=O)N1)[C@@H](C)O)C(=O)N[C@@H](CC(=O)O)C(=O)N[C@@H](Cc1ccccc1)C(N)=O (HELM PEPTIDE1{[Glp].Q.D.Y.T.G.W.M.D.F.[am]}$$$$V2.0)
- Yield (%) of sulfated tyrosylpeptide [1, 7]: 4.8%

Compound: Nc1ncnc2c1ncn2[C@@H]1O[C@H](COP(=O)(O)OS(=O)(=O)O)[C@@H](OP(=O)(O)O)[C@H]1O [3'-phosphoadenosine-5'-phosphosulfate]
- utilization as a sulfate donor ([2]; in words): does not utilize
- Activity (%) as sulfate donor [2]: 0%

Compound: Cc1cc(=O)oc2cc(O)ccc12 [4-methylumbelliferone]
- Activity (%) as sulfate acceptor [1, 8]: 86%

Compound: Cc1cc(=O)oc2cc(OS(=O)(=O)O)ccc12 [4-methylumbelliferyl sulfate]
- Activity (%) as sulfate donor [2]: 46%

Compound: O=C(O)CN(CCN(CC(=O)O)CC(=O)O)CC(=O)O [EDTA]
- Effectors: effect on enzyme activity (Clostridium innocuum AST): no effect

Compound: CC[C@H](C)[C@H](NC(=O)[C@H](Cc1ccc(O)cc1)NC(=O)[C@@H](NC(=O)[C@H](CCCNC(=N)N)NC(=O)[C@@H](N)CC(=O)O)C(C)C)C(=O)N[C@@H](Cc1cnc[nH]1)C(=O)N1CCC[C@H]1C(=O)N[C@@H](Cc1ccccc1)C(=O)N[C@@H](Cc1cnc[nH]1)C(=O)N[C@@H](CC(C)C)C(=O)O [angiotensin I] (H-DRVYIHPFHL-OH)
- Yield (%) of sulfated tyrosylpeptide [1, 7]: 8.8%

Compound: NC(=O)CC[C@@H]1NC(=O)[C@H](Cc2ccccc2)NC(=O)[C@H](Cc2ccc(O)cc2)NC(=O)[C@@H](N)CSSC[C@@H](C(=O)N2CCC[C@H]2C(=O)N[C@@H](CCCN=C(N)N)C(=O)NCC(N)=O)NC(=O)[C@H](CC(N)=O)NC1=O [arg8 vasopressin]
- Yield (%) of sulfated tyrosylpeptide [1, 7]: 35.8%

Compound: Oc1cc(O)c2c(c1)OC(c1ccc(O)c(O)c1)C(O)C2 (stereo not shown) [catechin]
- Activity (%) as sulfate acceptor [1]: 150

Compound: Oc1ccccc1O [catechol]
- Activity (%) as sulfate acceptor [1]: 208

Compound: CSCC[C@H](NC(=O)[C@H](Cc1ccc(O)cc1)NC(=O)[C@@H](N)CC(=O)O)C(=O)NCC(=O)N[C@@H](Cc1c[nH]c2ccccc12)C(=O)N[C@@H](CCSC)C(=O)N[C@@H](CC(=O)O)C(=O)N[C@@H](Cc1ccccc1)C(N)=O [cholecystokinin8, cholecystokinin-8]
- yield of sulfation of CCK-8 ([1]; Clostridium arylsulfotransferase, under conditions similar to the prior art): ≥ 60%
- Yield (%) of sulfated tyrosylpeptide [1, 7]: 35.4%
- highest reported yield of sulfated CCK-8 [3]: ~31.3%
- yield of sulfation of CCK-8 [4]: ≥ 45%

Compound: C[C@@H](NC(=O)[C@@H](N)Cc1ccc(O)cc1)C(=O)N[C@@H](Cc1ccccc1)C(=O)NCC(=O)N[C@@H](Cc1ccc(O)cc1)C(=O)N1CCC[C@H]1C(=O)N[C@@H](CO)C(N)=O [dermorphin]
- Yield (%) of sulfated tyrosylpeptide [1, 7]: 67.0%

Compound: C[C@]12CC[C@@H]3c4ccc(OS(=O)(=O)O)cc4CC[C@H]3[C@@H]1CCC2=O [estrone sulfate]
- specific activity as donor substrate [5]: about 3.4%
- specific activity as donor substrate [2]: about 17%
- Activity (%) as sulfate donor [2]: 22%

Compound: O=S(=O)(O)Oc1c[nH]c2ccccc12 [indoxyl sulfate]
- specific activity as donor substrate [5]: about 2.2%
- specific activity as donor substrate [2]: about 27%
- Activity (%) as sulfate donor [2]: 35%

Compound: N=C(N)NCCC[C@H](NC(=O)[C@@H](N)Cc1ccc(O)cc1)C(=O)O [kyotorphin]
- Yield (%) of sulfated tyrosylpeptide [1, 7]: 16.8%

Compound: CC(C)C[C@H](NC(=O)[C@H](Cc1ccccc1)NC(=O)CNC(=O)CNC(=O)[C@@H](N)Cc1ccc(O)cc1)C(=O)O [leu enkephalin]
- Yield (%) of sulfated tyrosylpeptide [1, 7]: 92.5%

Compound: COC(=O)c1ccc(O)cc1 [methyl p-hydroxybenzoate]
- Activity (%) as sulfate acceptor [1]: 65

Compound: O=[N+]([O-])c1ccc(O)c(OS(=O)(=O)O)c1 [p-nitrocatechol sulfate]
- Activity (%) as sulfate donor [2]: 196%

Compound: Oc1ccccc1 [phenol]
- Activity (%) as sulfate acceptor [1]: 194

Compound: CSCC[C@H](NC(=O)[C@H](CC(C)C)NC(=O)CNC(=O)[C@H](Cc1ccc(O)cc1)NC(=O)[C@H](Cc1ccccc1)NC(=O)[C@H](CCCCN)NC(=O)[C@H](CC(N)=O)NC(=O)[C@@H]1CCCN1C(=O)[C@H](CC(=O)O)NC(=O)[C@H](C)NC(=O)[C@@H]1CCC(=O)N1)C(N)=O [physalaemin] (HELM PEPTIDE1{[Glp].A.D.P.N.K.F.Y.G.L.M.[am]}$$$$V2.0)
- Yield (%) of sulfated tyrosylpeptide [1, 7]: 10.5%

Compound: CC(C)C[C@H](NC(=O)[C@H](Cc1ccc(O)cc1)NC(=O)[C@@H](N)CCCNC(=N)N)C(=O)N1CCC[C@H]1C(=O)N[C@H](C(=O)O)[C@@H](C)O [proctolin] (H-RYLPT-OH)
- Yield (%) of sulfated tyrosylpeptide [1, 7]: 19.8%

Compound: NCCc1ccc(O)cc1 [tyramine, 4-hydroxyphenethylamine]
- Activity (%) as sulfate acceptor [1, 8]: 100%
- Km [6]: 1630 µM

Compound: COC(=O)[C@@H](N)Cc1ccc(O)cc1 [tyrosine methyl ester]
- Activity (%) as sulfate acceptor [1, 8]: 59%

Compound: N[C@@H](Cc1ccc(O)cc1)C(=O)O [tyrosine]
- Activity (%) as sulfate acceptor [1]: 13

Compound: hirudin (54-65) (GDFEEIPEEYLQ) [Gly-Asp-Phe-Glu-Glu-lle-Pro-Glu-Glu-Tyr-Leu-Gin]
- Yield (%) of sulfated tyrosylpeptide [1, 7]: 7.7%

Compound: phenolphthalein sulfate
- Activity (%) as sulfate donor [2]: 12%

From patent publication US6225100A, “Arylsulfotransferase” (DCV, Inc., priority 1999, dated 2001)
